This assay deals with Staphylococcus aureus (Sau) 516 cells. Put plainly: Bacterial Susceptibility Testing Methods 2 (microbroth dilution, growth inhibition). The class given is cell-based. From the text: Compounds may be tested for antimicrobial activity by susceptibility testing using microbroth dilution methods recommended by CSLI. Compounds may be dissolved in dimethylsulfoxide and tested in 10 doubling dilutions in the susceptibility assays such that the final dimethylsulfoxide concentration in the assay is 2% (v/v). The Staphylococcus aureus (Sau) 516 cells used in the assay may be grown overnight on appropriate agar media and then suspended in the NCCLS-recommended liquid susceptibility-testing media. […] Plates may be incubated under appropriate conditions of atmosphere and temperature and for times according to NCCLS standard methods prior to being read. As used in Table 1 below, the term “inhibition” refers to the percentage of Staphylococcus aureus 516 cell growth that is suppressed (compared to an untreated sample) by the compound of the indicated example number. When tested in the above in-vitro assay, the compounds and salts of the example numbers listed below were tested at the indicated concentrations, providing the indicated inhibitions. In most instances, the highest concentrations at which the compounds were tested was 8 μg/mL. In some instances, however, compounds were tested at concentrations higher than 8 μg/mL, typically when the concentration was first measured in μM and was subsequently converted to μg/mL. In those cases in which compounds were tested at more than one concentration higher than 8 μg/mL, the concentration closest to 8 μg/mL is provided below.
For orientation: In broth dilution the organism is exposed to a series of concentrations in liquid medium.

Setting [1] is: Staphylococcus aureus, Tested Concentration 8 μg/mL, Staphylococcus aureus 516 cell growth suppressed compared to untreated sample.
The mark [2] stands for this setting: Tested Concentration 8 μg/mL, Staphylococcus aureus 516 cell growth suppressed compared to untreated sample.
Where [3] appears, read: Staphylococcus aureus, Tested Concentration 12 μg/mL, Staphylococcus aureus 516 cell growth.

Experimental findings from patent publication US20120270864A1, “2-QUINOLINONE AND 2-QUINOXALINONE-DERIVATIVES AND THEIR USE AS ANTIBACTERIAL AGENTS” (ASTRAZENECA AB, priority 2006, published 2012) are described below.

Turning to `COc1ccc2ncc(=O)n(CCN3CCC(NCc4cc5c(cn4)OCCO5)C(O)C3)c2c1` (single isomer, unassigned) [Example 29, 1-(2-{4-[(2,3-Dihydro[1,4]dioxino[2,3-c]pyridin-7-ylmethyl)amino]-3-hydroxypiperidin-1-yl}ethyl)-7-methoxyquinoxalin-2(1H)-one], the inhibition – broadly, the drop in the measured response relative to a control, in per cent – at 8 µg/mL under setting [1] is 84%.

Take `COc1ccc2ncc(=O)n(CCN3CCC(NCc4ccc5c(n4)NC(=O)CO5)C(O)C3)c2c1` (single isomer, unassigned) [Example 30, 6-[({3-Hydroxy-1-[2-(7-methoxy-2-oxoquinoxalin-1(2H)-yl)ethyl]piperidin-4-yl}amino)methyl]-2H-pyrido[3,2-b][1,4]oxazin-3(4H)-one]: 8 µg/mL produced 98% inhibition under setting [1]. Take `COc1ccc2ncc(=O)n(CCN3CCC(NCc4cc5c(cn4)OCCO5)C(O)C3)c2c1` (single isomer, unassigned) [Example 31, 1-(2-{4-[(2,3-dihydro[1,4]dioxino[2,3-c]pyridin-7-ylmethyl)amino]-3-hydroxypiperidin-1-yl}ethyl)-7-methoxyquinoxalin-2(1H)-one]: under setting [2], the “Inhibition (%)” value worked out at 87%. Turning to `COc1ccc2ncc(=O)n(CCN3CCC(NCc4ccc5c(n4)NC(=O)CO5)C(O)C3)c2c1` (single isomer, unassigned) [Example 32, 6-[({3-Hydroxy-1-[2-(7-methoxy-2-oxoquinoxalin-1(2H)-yl)ethyl]piperidin-4-yl}amino)methyl]-2H-pyrido[3,2-b][1,4]oxazin-3 (4H)-one], the “Inhibition (%)” value under setting [2] was 98%. In turn, `N#Cc1ccc2ccc(=O)n(CCN3CCC(NCc4cc5c(cn4)OCCO5)C(F)C3)c2c1` (single isomer, unassigned) [Example 33, 1-(2-{4-[(2,3-Dihydro[1,4]dioxino[2,3-c]pyridin-7-ylmethyl)amino]-3-fluoropiperidin-1-yl}ethyl)-2-oxo-1,2-dihydroquinoline-7-carbonitrile] returned an inhibition at 13 µg/mL (Staphylococcus aureus, Tested Concentration 13 μg/mL, Staphylococcus aureus 516 cell growth) of 96%. Consider `COc1ccc2ncc(=O)n(CCN3CCC(NCc4cc5c(cn4)OCCO5)C(F)C3)c2c1` (single isomer, unassigned) [Example 35, 1-(2-{4-[(2,3-Dihydro[1,4]dioxino[2,3-c]pyridin-7-ylmethyl)amino]-3-fluoropiperidin-1-yl}ethyl)-7-methoxyquinoxalin-2(1H)-one], for which the inhibition at 14 µg/mL (Staphylococcus aureus, Tested Concentration 14 μg/mL, Staphylococcus aureus 516 cell growth) was found to be 100%. Regarding `COc1ccc2ncc(=O)n(CCN3CCC(NCc4ccc5c(n4)NC(=O)CO5)C(F)C3)c2c1` (single isomer, unassigned) [Example 36, 6-[({3-Fluoro-1-[2-(7-methoxy-2-oxoquinoxalin-1(2H)-yl)ethyl]piperidin-4-yl}amino)methyl]-2H-pyrido[3,2-b][1,4]oxazin-3(4H)-one], the inhibition at 12 µg/mL under setting [3] stood at 90%. On to `N#Cc1ccc2ccc(=O)n(CCN3CCC(NCc4cc5c(cn4)OCCO5)C(F)C3)c2c1` (single isomer, unassigned) [Example 37, 1-(2-{4-[(2,3-Dihydro[1,4]dioxino[2,3-c]pyridin-7-ylmethyl)amino]-3-fluoropiperidin-1-yl}ethyl)-2-oxo-1,2-dihydroquinoline-7-carbonitrile], for which the “Inhibition (%)” value (Tested Concentration 13 μg/mL, Staphylococcus aureus 516 cell growth) was 100%.

With `N#Cc1ccc2ccc(=O)n(CCN3CCC(NCc4ccc5c(n4)NC(=O)CO5)C(F)C3)c2c1` (single isomer, unassigned) [Example 38, 1-[2-(3-Fluoro-4-{[(3-oxo-3,4-dihydro-2H-pyrido[3,2-b][1,4]oxazin-6-yl)methyl]amino}piperidin-1-yl)ethyl]-2-oxo-1,2-dihydro quino line-7-carbonitrile], the inhibition at 12 µg/mL under setting [3] was 100%. On to `COc1ccc2ncc(=O)n(CCN3CCC(NCc4cc5c(cn4)OCCO5)C(F)C3)c2c1` (single isomer, unassigned) [Example 39, 1-(2-{4-[(2,3-Dihydro[1,4]dioxino[2,3-c]pyridin-7-ylmethyl)amino]-3-fluoropiperidin-1-yl}ethyl)-7-methoxyquinoxalin-2(1H)-one], for which the “Inhibition (%)” value (Tested Concentration 14 μg/mL, Staphylococcus aureus 516 cell growth) is listed as 100%.

`COc1ccc2ncc(=O)n(CCN3CCC(NCc4ccc5c(n4)NC(=O)CO5)C(F)C3)c2c1` (single isomer, unassigned) [Example 40, 6-[({3-Fluoro-1-[2-(7-methoxy-2-oxoquinoxalin-1(2H)-yl)ethyl]piperidin-4-yl}amino)methyl]-2H-pyrido[3,2-b][1,4]oxazin-3 (4H)-one]: the “Inhibition (%)” value (Tested Concentration 12 μg/mL, Staphylococcus aureus 516 cell growth) is reported as 100%. Turning to `N#Cc1ccc2ccc(=O)n(CCN3CC[C@H](NCc4cc5c(cn4)OCCO5)[C@H](O)C3)c2c1` [Example 1], under setting [2], the “Inhibition (%)” value is 100%. Under setting [1], `N#Cc1ccc2ccc(=O)n(CCN3CC[C@H](NCc4ccc5c(n4)NC(=O)CS5)[C@H](O)C3)c2c1` [Example 3, 1-[2-((3R,4S)-3-Hydroxy-4-{[(3-oxo-3,4-dihydro-2H-pyrido[3,2-b][1,4]thiazin-6-yl)methyl]amino}piperidin-1-yl)ethyl]-2-oxo-1,2-dihydroquinoline-7-carbonitrile] showed an inhibition at 8 µg/mL of 99%. The compound `N#Cc1ccc2ccc(=O)n(CCN3CC[C@@H](NCc4cc5c(cn4)OCCO5)[C@@H](O)C3)c2c1` [Example 4, 1-(2-{(3S,4R)-4-[(2,3-Dihydro[1,4]dioxino[2,3-c]pyridin-7-ylmethyl)amino]-3-hydroxypiperidin-1-yl}ethyl)-2-oxo-1,2-dihydroquinoline-7-carbonitrile] came in with an inhibition at 8 µg/mL under setting [1] of 100%. The same measure, in the same setting: then `N#Cc1ccc2ccc(=O)n(CCN3CC[C@@H](NCc4ccc5c(n4)NC(=O)CO5)[C@@H](O)C3)c2c1` [Example 5, 1-[2-((3S,4R)-3-Hydroxy-4-{[(3-oxo-3,4-dihydro-2H-pyrido[3,2-b][1,4]oxazin-6-yl)methyl]amino}piperidin-1-yl)ethyl]-2-oxo-1,2-dihydro quino line-7-carbonitrile], with 100%; and `N#Cc1ccc2ccc(=O)n(CCN3CC[C@@H](NCc4ccc5c(n4)NC(=O)CS5)[C@@H](O)C3)c2c1` [Example 6, 1-[2-((3S,4R)-3-Hydroxy-4-{[(3-oxo-3,4-dihydro-2H-pyrido[3,2-b][1,4]thiazin-6-yl)methyl]amino}piperidin-1-yl)ethyl]-2-oxo-1,2-dihydro quino line-7-carbonitrile], with 99%; and `COc1ccc2ncc(=O)n(CCN3CC[C@H](NCc4cc5c(cn4)OCCO5)[C@H](O)C3)c2c1` [Example 7, 1-(2-{(3R,4S)-4-[(2,3-Dihydro[1,4]dioxino[2,3-c]pyridin-7-ylmethyl)amino]-3-hydroxypiperidin-1-yl}ethyl)-7-methoxyquinoxalin-2(1H)-one], with 100%. Still for that read-out and setting: then `COc1ccc2ncc(=O)n(CCN3CC[C@H](NCc4ccc5c(n4)NC(=O)CO5)[C@H](O)C3)c2c1` [Example 8, 6-[({(3R,4S)-3-Hydroxy-1-[2-(7-methoxy-2-oxoquinoxalin-1(2H)-yl)ethyl]piperidin-4-yl}amino)methyl]-2H-pyrido[3,2-b][1,4]oxazin-3(4H)-one], with 99%. Consider `COc1ccc2ncc(=O)n(CCN3CC[C@H](NCc4ccc5c(n4)NC(=O)CS5)[C@H](O)C3)c2c1` [Example 9], for which the “Inhibition (%)” value under setting [2] was determined as 100%. The compound `COc1ccc2ncc(=O)n(CCN3CC[C@@H](NCc4cc5c(cn4)OCCO5)[C@@H](O)C3)c2c1` [Example 10, 1-(2-{(3S,4R)-4-[(2,3-Dihydro[1,4]dioxino[2,3-c]pyridin-7-ylmethyl)amino]-3-hydroxypiperidin-1-yl}ethyl)-7-methoxyquinoxalin-2(1H)-one] came in with an inhibition at 8 µg/mL under setting [1] of 100%.

For the compound `COc1ccc2ncc(=O)n(CCN3CC[C@@H](NCc4ccc5c(n4)NC(=O)CO5)[C@@H](O)C3)c2c1` [Example 11, 6-[({(3S,4R)-3-Hydroxy-1-[2-(7-methoxy-2-oxoquinoxalin-1(2H)-yl)ethyl]piperidin-4-yl}amino)methyl]-2H-pyrido[3,2-b][1,4]oxazin-3(4H)-one], under setting [1], the inhibition at 8 µg/mL worked out at 100%. The same measure, in the same setting: with `N#Cc1ccc2ccc(=O)n(CCN3CC[C@@H](NCc4cc5c(cn4)OCCO5)[C@@H](F)C3)c2c1` [Example 12, 1-(2-{(3S,4R)-4-[(2,3-Dihydro[1,4]dioxino[2,3-c]pyridin-7-ylmethyl)amino]-3-fluoropiperidin-1-yl}ethyl)-2-oxo-1,2-dihydroquinoline-7-carbonitrile] the figure was 100%; with `N#Cc1ccc2ccc(=O)n(CCN3CC[C@H](NCc4cc5c(cn4)OCCO5)[C@H](F)C3)c2c1` [Example 13, 1-(2-{(3R,4S)-4-[(2,3-Dihydro[1,4]dioxino[2,3-c]pyridin-7-ylmethyl)amino]-3-fluoropiperidin-1-yl}ethyl)-2-oxo-1,2-dihydro quino line-7-carbonitrile], 100%; with `COc1ccc2ncc(=O)n(CCN3CC[C@@H](NCc4cc5c(cn4)OCCO5)[C@@H](OC)C3)c2c1` [Example 14, 1-(2-{(3S,4R)-4-[(2,3-Dihydro[1,4]dioxino[2,3-c]pyridin-7-ylmethyl)amino]-3-methoxypiperidin-1-yl}ethyl)-7-methoxyquinoxalin-2(1H)-one], 100%.
